Measurements from ChEMBL document CHEMBL3632504, “Discovery of 1H-pyrazolo[3,4-b]pyridines as potent dual orexin receptor antagonists (DORAs)” (Bioorg Med Chem Lett, 2015).
≈ marks a conversion by molar mass, not a printed value.

Tests used:
Homo sapiens = organism: Homo sapiens; experiment: Selectivity ratio of Ki for human orexin 1 receptor to Ki for human orexin 2 receptor
Blood [1] = experiment: Dose-normalized Cmax in mouse blood at 3 mg/kg, po administered through cassette dosing; format: ADME, organism-based; conditions: in vivo
Blood [2] = experiment: Dose-normalized AUC in mouse blood at 3 mg/kg, po administered through cassette dosing; format: ADME, organism-based; conditions: in vivo
Cytochrome P450 3A4 = Cytochrome P450 3A4 (Homo sapiens, UniProt P08684); experiment: Inhibition of CYP3A4 (unknown origin); format: ADME
[3] = Blood clearance in mouse at 1 mg/kg, iv administered through cassette dosing; format: ADME, organism-based
[4] = Octanol/water partition coefficient, logP of the compound; format: physicochemical
[5] = Intrinsic clearance in human liver microsomes; format: ADME; conditions: read-out: CLH
[6] = Intrinsic clearance in rat liver microsomes; format: ADME; conditions: read-out: CLH
[7] = Equilibrium solubility of the compound at pH 6.8; format: physicochemical; conditions: buffer
[8] = Intrinsic clearance in mouse liver microsomes; format: ADME; conditions: read-out: CLH
[9] = Oral bioavailability in mouse at 3 mg/kg administered through cassette dosing; format: ADME, organism-based; conditions: in vivo
[10] = Plasma protein binding in human; format: ADME, cell-free; conditions: read-out: PPB (converted)
Plasma = experiment: Fraction unbound in mouse plasma; format: ADME, cell-free
Cytochrome P450 2C9 = Cytochrome P450 2C9 (Homo sapiens, UniProt P11712); experiment: Inhibition of CYP2C9 (unknown origin); format: ADME
[11] = Terminal half life in mouse at 1 mg/kg, iv administered through cassette dosing; format: ADME, organism-based; conditions: in vivo, read-out: beta t1/2 (converted)
[12] = Volume of distribution at steady state in mouse at 1 mg/kg, iv administered through cassette dosing; format: ADME, organism-based; conditions: in vivo, read-out: Vdss
[13] = Plasma protein binding in mouse; format: ADME; conditions: read-out: PPB
Cytochrome P450 2D6 = Cytochrome P450 2D6 (Homo sapiens, UniProt P10635); experiment: Inhibition of CYP2D6 (unknown origin); format: ADME
[14] = Permeability of the compound by PAMPA; format: physicochemical
Orexin receptor type 2 [15] = target: T1, Orexin receptor type 2 (Homo sapiens, UniProt O43614); experiment: Antagonist activity against human orexin 2 receptor after 1 hr by Ca2+ sensitive Fluo4-AM fluorescent dye-based FLIPR assay; format: functional
T1 sequence (O43614 whole entry): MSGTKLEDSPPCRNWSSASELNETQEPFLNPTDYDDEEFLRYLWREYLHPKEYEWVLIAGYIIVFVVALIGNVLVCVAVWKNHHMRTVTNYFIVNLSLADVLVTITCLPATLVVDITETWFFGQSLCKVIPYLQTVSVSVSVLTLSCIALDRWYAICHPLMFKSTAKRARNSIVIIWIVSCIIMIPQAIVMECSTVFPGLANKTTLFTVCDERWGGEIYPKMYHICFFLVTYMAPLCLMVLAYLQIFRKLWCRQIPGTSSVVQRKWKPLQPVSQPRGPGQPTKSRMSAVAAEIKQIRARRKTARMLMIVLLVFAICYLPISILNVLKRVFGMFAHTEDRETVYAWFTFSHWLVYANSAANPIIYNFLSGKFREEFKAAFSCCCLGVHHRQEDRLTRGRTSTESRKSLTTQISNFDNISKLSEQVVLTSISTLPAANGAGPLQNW

in vivo = conditions: mouse, brain / blood, po, 3 mg/kg
Description: Ratio of drug level in brain to blood in mouse at 3 mg/kg, po at 1 hr post dose administered through cassette dosing

Orexin receptor type 2 [16] = target: T1, Orexin receptor type 2; experiment: Displacement of [125l]orexin A from human orexin 2 receptor expressed in CHO cells after 1 hr; format: cell-based
MDR1 = experiment: Efflux ratio of permeability from basolateral to apical side over apical to basolateral side in MDCK cells expressing MDR1; format: ADME, cell-based, Canis lupus familiaris; conditions: dog
[17] = target: T2, Orexin/Hypocretin receptor type 1 (Homo sapiens, UniProt O43613); experiment: Displacement of [125l]orexin A from human orexin 1 receptor expressed in CHO cells after 1 hr; format: cell-based
T2 sequence (O43613 whole entry): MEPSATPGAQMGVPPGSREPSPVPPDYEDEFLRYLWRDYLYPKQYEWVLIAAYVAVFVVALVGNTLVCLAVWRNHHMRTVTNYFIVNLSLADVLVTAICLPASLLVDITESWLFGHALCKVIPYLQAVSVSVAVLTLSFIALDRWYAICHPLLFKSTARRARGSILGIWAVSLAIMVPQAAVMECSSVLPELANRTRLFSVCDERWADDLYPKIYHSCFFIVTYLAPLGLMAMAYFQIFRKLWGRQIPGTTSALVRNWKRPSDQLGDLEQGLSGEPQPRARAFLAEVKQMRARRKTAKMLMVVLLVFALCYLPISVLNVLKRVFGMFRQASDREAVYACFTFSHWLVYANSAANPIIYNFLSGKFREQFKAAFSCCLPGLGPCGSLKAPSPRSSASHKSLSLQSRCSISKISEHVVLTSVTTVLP

[18] = target: Voltage-gated inwardly rectifying potassium channel KCNH2 (Homo sapiens, UniProt Q12809); experiment: Binding affinity to human ERG
[19] = target: T2, Orexin/Hypocretin receptor type 1
Description: Antagonist activity against human orexin 1 receptor after 1 hr by Ca2+ sensitive Fluo4-AM fluorescent dye-based FLIPR assay

Liver microsome [20] = experiment: Drug metabolism in human liver microsomes assessed as oxidation at benzylic position of amide; format: ADME
Liver microsome [21] = experiment: Drug metabolism in human liver microsomes assessed as oxidation at phenyl ring in 3-position of core moiety; format: ADME
Mus musculus [22] = organism: Mus musculus; experiment: Drug metabolism in mouse assessed as oxidation at benzylic position of amide; format: ADME, organism-based; conditions: in vivo
[23] = Drug metabolism in mouse liver microsomes assessed as oxidation at benzylic position of amide; format: ADME
Mus musculus [24] = organism: Mus musculus; experiment: Drug metabolism in mouse assessed as oxidation at phenyl ring in 3-position of core moiety; format: ADME, organism-based; conditions: in vivo
[25] = Drug metabolism in mouse liver microsomes assessed as oxidation at phenyl ring in 3-position of core moiety; format: ADME

Chain of Cytochrome P450 3A4 (P08684 whole entry): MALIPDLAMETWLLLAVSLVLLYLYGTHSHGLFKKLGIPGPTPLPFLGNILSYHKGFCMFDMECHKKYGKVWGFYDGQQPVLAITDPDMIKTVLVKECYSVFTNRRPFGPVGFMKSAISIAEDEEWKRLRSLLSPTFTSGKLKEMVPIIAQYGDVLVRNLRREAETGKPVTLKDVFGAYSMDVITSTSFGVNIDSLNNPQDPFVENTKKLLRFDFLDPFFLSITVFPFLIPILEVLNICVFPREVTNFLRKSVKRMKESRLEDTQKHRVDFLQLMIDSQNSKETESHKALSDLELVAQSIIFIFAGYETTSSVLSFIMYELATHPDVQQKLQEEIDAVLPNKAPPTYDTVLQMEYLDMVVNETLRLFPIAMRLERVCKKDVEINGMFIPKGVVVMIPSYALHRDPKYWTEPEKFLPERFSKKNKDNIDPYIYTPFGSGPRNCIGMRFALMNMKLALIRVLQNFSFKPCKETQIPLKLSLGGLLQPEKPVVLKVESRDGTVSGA
Chain of Cytochrome P450 2C9 (P11712 whole entry): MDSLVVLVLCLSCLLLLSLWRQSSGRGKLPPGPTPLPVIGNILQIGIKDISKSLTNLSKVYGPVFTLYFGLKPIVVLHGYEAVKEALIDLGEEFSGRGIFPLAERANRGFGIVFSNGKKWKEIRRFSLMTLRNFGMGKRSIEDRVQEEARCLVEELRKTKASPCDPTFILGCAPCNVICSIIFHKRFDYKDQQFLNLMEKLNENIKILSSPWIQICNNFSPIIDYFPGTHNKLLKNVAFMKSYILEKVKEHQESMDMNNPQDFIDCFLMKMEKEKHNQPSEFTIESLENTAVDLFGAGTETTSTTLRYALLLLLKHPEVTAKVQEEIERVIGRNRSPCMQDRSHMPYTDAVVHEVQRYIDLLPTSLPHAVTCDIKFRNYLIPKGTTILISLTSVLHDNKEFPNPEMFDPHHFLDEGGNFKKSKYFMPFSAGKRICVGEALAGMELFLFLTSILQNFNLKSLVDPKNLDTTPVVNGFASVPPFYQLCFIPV
Chain of Cytochrome P450 2D6 (P10635 whole entry): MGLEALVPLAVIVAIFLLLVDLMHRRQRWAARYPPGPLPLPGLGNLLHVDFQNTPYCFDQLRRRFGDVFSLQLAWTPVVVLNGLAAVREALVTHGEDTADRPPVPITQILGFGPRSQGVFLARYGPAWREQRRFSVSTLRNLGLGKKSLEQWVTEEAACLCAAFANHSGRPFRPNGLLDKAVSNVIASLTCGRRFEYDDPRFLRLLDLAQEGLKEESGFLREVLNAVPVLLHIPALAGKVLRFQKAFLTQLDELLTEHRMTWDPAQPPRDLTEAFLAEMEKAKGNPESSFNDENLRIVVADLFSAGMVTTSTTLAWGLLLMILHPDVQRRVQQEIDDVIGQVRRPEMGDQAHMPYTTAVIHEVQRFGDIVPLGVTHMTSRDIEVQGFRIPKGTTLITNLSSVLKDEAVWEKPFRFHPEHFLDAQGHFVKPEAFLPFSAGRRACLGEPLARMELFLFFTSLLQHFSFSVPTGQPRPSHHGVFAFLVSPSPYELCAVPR
Chain of Voltage-gated inwardly rectifying potassium channel KCNH2 (Q12809 whole entry): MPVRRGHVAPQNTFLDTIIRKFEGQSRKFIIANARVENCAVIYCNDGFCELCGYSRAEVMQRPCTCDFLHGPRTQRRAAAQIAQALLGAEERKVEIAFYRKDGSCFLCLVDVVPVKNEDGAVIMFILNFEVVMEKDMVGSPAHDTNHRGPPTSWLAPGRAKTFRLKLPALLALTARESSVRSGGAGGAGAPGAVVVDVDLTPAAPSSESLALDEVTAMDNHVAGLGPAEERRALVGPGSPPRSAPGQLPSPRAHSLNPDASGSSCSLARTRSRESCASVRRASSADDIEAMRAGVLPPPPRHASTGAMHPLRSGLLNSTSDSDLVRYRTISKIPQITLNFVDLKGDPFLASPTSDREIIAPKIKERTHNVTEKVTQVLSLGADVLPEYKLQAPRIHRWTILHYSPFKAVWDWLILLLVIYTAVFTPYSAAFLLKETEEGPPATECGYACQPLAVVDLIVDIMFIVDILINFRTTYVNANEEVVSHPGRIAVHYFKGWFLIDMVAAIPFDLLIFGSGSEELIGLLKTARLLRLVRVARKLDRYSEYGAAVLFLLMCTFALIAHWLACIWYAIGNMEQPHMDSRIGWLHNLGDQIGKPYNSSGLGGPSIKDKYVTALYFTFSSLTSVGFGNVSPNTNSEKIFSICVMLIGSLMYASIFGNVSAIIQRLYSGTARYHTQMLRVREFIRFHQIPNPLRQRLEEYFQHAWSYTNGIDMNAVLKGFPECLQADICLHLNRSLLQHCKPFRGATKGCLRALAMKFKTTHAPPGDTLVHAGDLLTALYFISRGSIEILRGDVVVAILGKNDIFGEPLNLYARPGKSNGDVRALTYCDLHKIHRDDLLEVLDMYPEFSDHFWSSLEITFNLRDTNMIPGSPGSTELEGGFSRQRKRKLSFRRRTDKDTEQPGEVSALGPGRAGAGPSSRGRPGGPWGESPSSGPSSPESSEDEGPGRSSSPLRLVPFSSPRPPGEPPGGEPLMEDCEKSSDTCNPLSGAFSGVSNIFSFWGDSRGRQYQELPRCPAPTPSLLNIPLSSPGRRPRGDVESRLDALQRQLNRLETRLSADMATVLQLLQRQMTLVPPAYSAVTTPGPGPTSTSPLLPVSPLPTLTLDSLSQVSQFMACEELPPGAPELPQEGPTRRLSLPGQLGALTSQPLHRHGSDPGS

C[C@H](NC(=O)COc1cc(C(F)(F)F)c2c(-c3ccccc3)n[nH]c2n1)c1ccccc1
Ratio Ki (Homo sapiens): 4.65

CC(NC(=O)COc1cc(C(F)(F)F)c2c(-c3ccccc3)nn(C)c2n1)c1cccnc1 (racemic)
Ratio Ki (Homo sapiens): 1.67

COc1ccccc1C(C)NC(=O)COc1cc(C(F)(F)F)c2c(-c3ccccc3)nn(C)c2n1 (racemic)
Ratio Ki (Homo sapiens): 1.73

COc1ccc(C(C)NC(=O)COc2cc(C(F)(F)F)c3c(-c4ccccc4)nn(C)c3n2)cc1 (racemic)
Ratio Ki (Homo sapiens): 14.5

Cc1n[nH]c(C)c1[C@H](C)NC(=O)COc1cc(C(F)(F)F)c2c(-c3ccccc3)nn(C)c2n1
Cmax/dose (Blood [1]): 300 nM | AUC/dose (Blood [2]): 371 nM·h | IC50 (Cytochrome P450 3A4): > 20000 nM | clearance [3]: 20 mL/min/kg | logP [4]: 4.2 | microsomal CLint [5]: 433 µL/min/mg | microsomal CLint [6]: 603 µL/min/mg | solubility thermodynamic [7]: < 4 µM | microsomal CLint [8]: 330 µL/min/mg | bioavailability [9]: 21% | fraction unbound [10]: 0.04 | Fu (Plasma): < 1% | IC50 (Cytochrome P450 2C9): > 20000 nM | half-life [11]: 30 min | Vd [12]: 0.5 L/kg | fraction unbound [13]: < 0.01 | IC50 (Cytochrome P450 2D6): > 20000 nM | log(permeability) [14]: -4.1

CC(NC(=O)COc1cc(C(F)(F)F)c2c(-c3ccccc3)nn(C)c2n1)c1ccccn1 (racemic)
Ki (Orexin receptor type 2 [15]): Not Active

COc1ccc([C@@H](C)NC(=O)COc2cc(C(F)(F)F)c3c(-c4ccccc4)nn(C)c3n2)cc1
Ratio Ki (Homo sapiens): 2.41

Cc1ccc2c(n1)CC[C@@H]2NC(=O)COc1cc(C)c2c(C3CC3)nn(C)c2n1
Ratio Ki (Homo sapiens): 4.95 | Cmax/dose (Blood [1]): 115 nM | AUC/dose (Blood [2]): 106 nM·h | clearance [3]: 66 mL/min/kg | bioavailability [9]: 16% | Kp at 1 h (in vivo): 0.13 | half-life [11]: 18 min | Vd [12]: 0.4 L/kg

COc1ccc([C@H](C)NC(=O)COc2cc(C(F)(F)F)c3c(-c4ccccc4)nn(C)c3n2)cc1
Ratio Ki (Homo sapiens): 7 | Ki (Orexin receptor type 2 [16]): 4 nM | Cmax/dose (Blood [1]): 4 nM | AUC/dose (Blood [2]): 17 nM·h | IC50 (Cytochrome P450 3A4): 8000 nM | clearance [3]: 65 mL/min/kg | efflux ratio (MDR1): 1 | logP [4]: 4.6 | microsomal CLint [5]: 190 µL/min/mg | microsomal CLint [6]: 147 µL/min/mg | Ki [17]: 8 nM | solubility thermodynamic [7]: < 4 µM | microsomal CLint [8]: 478 µL/min/mg | bioavailability [9]: 3% | fraction unbound [10]: < 0.01 | Kp at 1 h (in vivo): 1.15 | Fu (Plasma): < 1% | IC50 [18]: > 30000 nM | IC50 (Cytochrome P450 2C9): 5000 nM | half-life [11]: 66 min | Vd [12]: 2 L/kg | fraction unbound [13]: < 0.01 | IC50 (Cytochrome P450 2D6): > 20000 nM | log(permeability) [14]: -4

Cc1cc2c(cn1)[C@@H](NC(=O)COc1cc(C)c3c(C4CC4)nn(C)c3n1)CC2
logP [4]: 3.5 | microsomal CLint [6]: 924 µL/min/mg | solubility thermodynamic [7]: 25 µM (≈ 9.79 µg/mL)

COc1ccc(CNC(=O)COc2cc(C(F)(F)F)c3c(-c4ccccc4)nn(C)c3n2)cc1
Ratio Ki (Homo sapiens): 9.64

CC(NC(=O)COc1cc(C(F)(F)F)c2c(-c3ccccc3)nn(C)c2n1)c1ccccc1 (racemic)
Ratio Ki (Homo sapiens): 1.54 | Ki (Orexin receptor type 2 [16]): 168 nM | Ki [17]: 88 nM | Ki [19]: 120 nM | Ki (Orexin receptor type 2 [15]; read-out: Ki): 78 nM

C[C@H](NC(=O)COc1cc(C(F)(F)F)c2c(-c3ccccc3)nn(C)c2n1)c1ccccc1
Ratio Ki (Homo sapiens): 1.62 | Drug metabolism (Liver microsome [20]): metabolite_detected | logP [4]: 4.7 | Drug metabolism (Liver microsome [21]): metabolite_detected | Drug metabolism (Mus musculus [22]): metabolite_detected | solubility thermodynamic [7]: < 4 µM | Drug metabolism [23]: metabolite_detected | Drug metabolism (Mus musculus [24]): metabolite_detected | Drug metabolism [25]: metabolite_detected

C[C@H](NC(=O)CNc1cc(C(F)(F)F)c2c(-c3ccccc3)nn(C)c2n1)c1ccccc1
Ratio Ki (Homo sapiens): 0.31

Cc1nn(C)c(C)c1C(C)NC(=O)COc1cc(C(F)F)c2c(-c3ccccc3)nn(C)c2n1 (racemic)
logP [4]: 3.9 | solubility thermodynamic [7]: 248 µM (≈ 116 µg/mL)

Cc1nn(C)c(C)c1[C@H](C)NC(=O)COc1cc(C(F)(F)F)c2c(-c3ccccc3)nn(C)c2n1
Ratio Ki (Homo sapiens): 0.7 | Ki [19]: 7 nM | Ki (Orexin receptor type 2 [15]; read-out: Ki): 10 nM

COc1cccc(C(C)NC(=O)COc2cc(C(F)(F)F)c3c(-c4ccccc4)nn(C)c3n2)c1 (racemic)
Ratio Ki (Homo sapiens): 0.77

Cc1nn(C)c(C)c1C(C)NC(=O)COc1cc(C(F)F)c2c(C3CC3)nn(C)c2n1 (racemic)
logP [4]: 2.8 | microsomal CLint [6]: 660 µL/min/mg | solubility thermodynamic [7]: 657 µM (≈ 284 µg/mL)

Cc1ccc([C@H](C)NC(=O)COc2cc(C)c3c(-c4ncccn4)nn(C)c3n2)cc1
logP [4]: 3.3 | solubility thermodynamic [7]: 43 µM (≈ 17.9 µg/mL) | Ki (Orexin receptor type 2 [15]; read-out: Ki): 5 nM

C[C@H](NC(=O)COc1cc(C(F)(F)F)c2c(-c3ccccn3)nn(C)c2n1)c1ccccc1
logP [4]: 3.5 | microsomal CLint [6]: 924 µL/min/mg | solubility thermodynamic [7]: 40 µM (≈ 18.2 µg/mL) | Ki [19]: 660 nM | Ki (Orexin receptor type 2 [15]; read-out: Ki): 367 nM

Cc1ccc([C@H](C)NC(=O)COc2cc(C)c3c(-c4cnccn4)nn(C)c3n2)cc1
logP [4]: 3.9 | solubility thermodynamic [7]: 115 µM (≈ 47.9 µg/mL)
